Data reported in ChEMBL document CHEMBL5108032, “Innovation Experiences from Africa-Led Drug Discovery at the Holistic Drug Discovery and Development (H3D) Centre” (ACS Med Chem Lett, 2022).
Converted amounts (≈) assume the structure as drawn.

Test system: Mycobacterium tuberculosis
Assay: Antimycobacterial activity against Mycobacterium tuberculosis H37Rv assessed as inhibition of visible growth incubated for 7 days
Type: functional
Settings: 168 h, time 7 day

Cc1nnc(-c2noc3c(F)c4c(cc23)CC2(C(=O)NC(=O)NC2=O)[C@H]2[C@H](C)O[C@H](C)CN42)o1
MIC: 1.7 µM (≈ 0.8 µg/mL)
